Article PMC2248166, “Quantitative peptide binding motifs for 19 human and mouse MHC class I molecules derived using positional scanning combinatorial peptide libraries” (Immunome Research, 2008)
Where a SMILES comes first, the peptide text is derived from it.

Molecular target: HLA A*3201 (Homo sapiens, UniProt P04439, A270S/D101S/D185E/E176V/E277Q/F133L/G103R/G107R/G231S/H175R/I121M/I218V/I322F/K168Q/L105A/L300P/L318F/M331R/P208A/P217A/Q94H/R106L/R138Q/S129P/T104I/T323A/T345S/V100E/V321M/V358M)
Assay: biochemical
Assay type: binding

| SMILES | IC50 [nM] |
| --- | --- |
| CC[C@H](C)[C@H](NC(=O)[C@@H](NC(=O)[C@H](CC(C)C)NC(=O)[C@H](CC(C)C)NC(=O)[C@H](CC(C)C)NC(=O)[C@H](CO)NC(=O)[C@H](Cc1ccccc1)NC(=O)[C@H](CC(C)C)NC(=O)[C@@H](N)CO)C(C)C)C(=O)O [3102.0328] (H-SLFSLLLVI-OH) | 28 |
| CC[C@H](C)[C@H](NC(=O)[C@@H](NC(=O)[C@@H](NC(=O)[C@H](Cc1c[nH]cn1)NC(=O)[C@H](CC(C)C)NC(=O)[C@H](CCSC)NC(=O)[C@H](CC(N)=O)NC(=O)[C@H](CCC(N)=O)NC(=O)[C@@H](N)CCCCN)C(C)C)[C@@H](C)CC)C(=O)O [3102.0329] (H-KQNMLHVII-OH) | 2.1 |
| CC[C@H](C)[C@H](NC(=O)[C@H](CO)NC(=O)[C@@H](NC(=O)[C@H](C)NC(=O)[C@@H](NC(=O)[C@H](CC(C)C)NC(=O)[C@H](CC(C)C)NC(=O)[C@@H](NC(=O)[C@@H](N)CCCCN)[C@@H](C)CC)C(C)C)C(C)C)C(=O)O [3102.0330] (H-KILLVAVSI-OH) | 1.5 |
| CC[C@H](C)[C@H](NC(=O)[C@H](CC(C)C)NC(=O)[C@H](CC(C)C)NC(=O)[C@@H](NC(=O)[C@H](Cc1ccccc1)NC(=O)[C@H](CO)NC(=O)[C@H](CC(N)=O)NC(=O)[C@@H](NC(=O)[C@@H](N)CO)C(C)C)[C@@H](C)O)C(=O)O [3102.0331] (H-SVNSFTLLI-OH) | 2.6 |
| CC(C)C[C@H](NC(=O)[C@H](Cc1ccccc1)NC(=O)[C@H](CO)NC(=O)[C@H](CC(C)C)NC(=O)[C@@H](N)CCCCN)C(=O)N[C@@H](CO)C(=O)N[C@@H](CCCNC(=N)N)C(=O)N[C@H](C(=O)N[C@@H](Cc1ccccc1)C(=O)O)C(C)C [3102.0332] (H-KLSFLSRVF-OH) | 2.2 |
| CC[C@H](C)[C@H](N)C(=O)N[C@H](C(=O)N[C@@H](CO)C(=O)N[C@H](C(=O)N[C@H](C(=O)N[C@@H](CO)C(=O)N[C@@H](CC(C)C)C(=O)N[C@H](C(=O)N[C@H](C(=O)O)[C@@H](C)CC)C(C)C)[C@@H](C)CC)C(C)C)[C@@H](C)CC [3102.0334] (H-IISVISLVI-OH) | 47 |
| CC[C@H](C)[C@H](NC(=O)[C@H](CCCCN)NC(=O)[C@H](CCC(N)=O)NC(=O)[C@H](C)NC(=O)[C@@H](NC(=O)CNC(=O)[C@H](Cc1ccc(O)cc1)NC(=O)[C@H](CC(C)C)NC(=O)[C@@H](N)CCSC)[C@@H](C)CC)C(=O)O [3102.0335] (H-MLYGIAQKI-OH) | 12 |
| CC[C@H](C)[C@H](NC(=O)[C@@H](NC(=O)[C@@H](NC(=O)[C@@H](NC(=O)[C@@H](NC(=O)[C@@H](NC(=O)[C@H](CC(N)=O)NC(=O)[C@@H](NC(=O)[C@@H](N)C(C)C)[C@@H](C)O)C(C)C)[C@@H](C)CC)[C@@H](C)CC)[C@@H](C)CC)C(C)C)C(=O)O [3102.0336] (H-VTNVIIIVI-OH) | 14 |
| CC[C@H](C)[C@H](NC(=O)[C@@H](NC(=O)[C@H](CC(C)C)NC(=O)[C@@H](NC(=O)[C@H](CCCNC(=N)N)NC(=O)[C@H](CC(N)=O)NC(=O)[C@@H](NC(=O)[C@@H](NC(=O)CN)[C@@H](C)O)[C@@H](C)CC)[C@@H](C)CC)C(C)C)C(=O)O [3102.0337] (H-GTINRILVI-OH) | 15 |
| CC[C@H](C)[C@H](N)C(=O)N[C@H](C(=O)N[C@@H](CC(C)C)C(=O)N[C@@H](Cc1c[nH]cn1)C(=O)N[C@@H](CC(C)C)C(=O)N[C@@H](C)C(=O)N[C@@H](CS)C(=O)NCC(=O)N[C@@H](Cc1ccccc1)C(=O)O)[C@@H](C)O [3102.0338] (H-ITLHLACGF-OH) | 1.4 |
| CSCC[C@H](N)C(=O)N[C@H](C(=O)N[C@@H](CS)C(=O)NCC(=O)N[C@@H](CCC(N)=O)C(=O)N1CCC[C@H]1C(=O)N[C@@H](CC(C)C)C(=O)N[C@@H](CO)C(=O)N[C@@H](CC(C)C)C(=O)O)[C@@H](C)O [3102.0339] (H-MTCGQPLSL-OH) | 5.6 |
| CC[C@H](C)[C@H](NC(=O)[C@H](CC(C)C)NC(=O)[C@H](Cc1c[nH]cn1)NC(=O)[C@H](Cc1ccccc1)NC(=O)[C@H](CC(N)=O)NC(=O)[C@H](Cc1ccccc1)NC(=O)[C@@H](NC(=O)[C@@H](NC(=O)[C@@H](N)CCCNC(=N)N)[C@@H](C)O)[C@@H](C)CC)C(=O)O [3102.0342] (H-RTIFNFHLI-OH) | 2.1 |
| CC(C)C[C@H](NC(=O)[C@H](CC(N)=O)NC(=O)[C@H](Cc1ccc(O)cc1)NC(=O)[C@H](Cc1ccc(O)cc1)NC(=O)[C@@H](NC(=O)[C@H](Cc1ccc(O)cc1)NC(=O)[C@H](Cc1ccccc1)NC(=O)[C@H](CC(C)C)NC(=O)[C@@H](N)CCCCN)C(C)C)C(=O)O [3102.0343] (H-KLFYVYYNL-OH) | 0.34 |
| CC[C@H](C)[C@H](NC(=O)[C@H](CC(N)=O)NC(=O)[C@@H](NC(=O)[C@@H](NC(=O)[C@H](Cc1ccccc1)NC(=O)[C@@H](NC(=O)[C@H](C)NC(=O)[C@H](CC(C)C)NC(=O)[C@H](C)N)[C@@H](C)O)[C@@H](C)O)C(C)C)C(=O)O [3102.0344] (H-ALATFTVNI-OH) | 6.1 |
| CC[C@H](C)[C@H](NC(=O)[C@@H](NC(=O)[C@H](Cc1ccc(O)cc1)NC(=O)[C@H](CO)NC(=O)[C@@H](N)CCCCN)[C@@H](C)O)C(=O)N[C@@H](CCCNC(=N)N)C(=O)N[C@H](C(=O)N[C@@H](Cc1ccccc1)C(=O)N[C@@H](Cc1ccccc1)C(=O)O)C(C)C [3102.0345] (H-KSYTIRVFF-OH) | 1.1 |
| CC[C@H](C)[C@H](N)C(=O)N[C@H](C(=O)N[C@@H](Cc1ccccc1)C(=O)N[C@@H](CC(=O)O)C(=O)N[C@H](C(=O)N[C@@H](Cc1ccc(O)cc1)C(=O)N[C@@H](Cc1ccccc1)C(=O)N[C@@H](C)C(=O)N[C@H](C(=O)O)[C@@H](C)CC)[C@@H](C)CC)[C@@H](C)CC [3102.0346] (H-IIFDIYFAI-OH) | 0.93 |
| CSCC[C@H](NC(=O)[C@H](Cc1ccc(O)cc1)NC(=O)[C@H](Cc1ccccc1)NC(=O)[C@H](CC(C)C)NC(=O)[C@@H](N)CCSC)C(=O)N[C@@H](CC(=O)O)C(=O)N[C@@H](CC(C)C)C(=O)N[C@@H](CO)C(=O)N[C@@H](Cc1ccc(O)cc1)C(=O)O [3102.0347] (H-MLFYMDLSY-OH) | 1.2 |
| CC[C@H](C)[C@H](NC(=O)[C@H](Cc1c[nH]cn1)NC(=O)[C@@H](NC(=O)[C@H](CO)NC(=O)[C@@H](NC(=O)[C@H](C)NC(=O)[C@H](CO)NC(=O)[C@H](CC(C)C)NC(=O)[C@@H](N)CO)C(C)C)C(C)C)C(=O)O [3102.0349] (H-SLSAVSVHI-OH) | 34 |
| CC[C@H](C)[C@H](NC(=O)[C@@H](NC(=O)[C@H](CO)NC(=O)[C@H](CC(C)C)NC(=O)[C@@H](NC(=O)[C@H](CCSC)NC(=O)[C@H](CCSC)NC(=O)[C@@H](NC(=O)[C@H](C)N)[C@@H](C)CC)[C@@H](C)CC)[C@@H](C)O)C(=O)O [3102.0350] (H-AIMMILSTI-OH) | 2.5 |
| CC[C@H](C)[C@H](N)C(=O)N[C@@H](CCSC)C(=O)N[C@@H](CCSC)C(=O)N[C@H](C(=O)N[C@@H](CC(C)C)C(=O)N[C@@H](CO)C(=O)N[C@H](C(=O)N[C@H](C(=O)N[C@H](C(=O)O)[C@@H](C)CC)[C@@H](C)CC)[C@@H](C)O)[C@@H](C)CC [3102.0351] (H-IMMILSTII-OH) | 11 |
| CC[C@H](C)[C@H](NC(=O)[C@H](CC(=O)O)NC(=O)[C@H](CC(C)C)NC(=O)[C@@H](NC(=O)[C@@H](N)CC(C)C)[C@@H](C)O)C(=O)N[C@@H](Cc1ccccc1)C(=O)N[C@@H](Cc1ccc(O)cc1)C(=O)N[C@@H](CC(C)C)C(=O)N[C@@H](Cc1ccccc1)C(=O)O [3102.0354] (H-LTLDIFYLF-OH) | 4.4 |
